Laboratory results reported in patent US20220356186A1, “PERK INHIBITING PYRROLOPYRIMIDINE COMPOUNDS” (HiberCell, Inc., priority 2019, published 2022).
pIC50: −log10 of the molar value.

Columns and labels:
[1] = test system: GFP-eIF2α in HEK293 cells; assay: PERK cellular assay, TR-FRET in HEK293-EGFP-eIF2a cells after tunicamycin-induced ER stress; assay type: cell-based; conditions: Homo sapiens, HEK293, 2 h, HEK293-EGFP-eIF2a cells, tunicamycin 2 hours; read-out: Cellular eIF2α IC50
Procedure, shortened: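 HEK293 cells stably expressing GFP-eIF2α, plated 5000 cells/well overnight, pretreated with inhibitors 30 min at 37 °C, then ER stress induced with tunicamycin […] for 2 h.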

[2] = target: T1, EIF2AK3 (PERK) catalytic domain (amino acids 536-1116) (Homo sapiens, UniProt Q9NZJ5); assay: PERK in vitro activity assay (isolated), TR-FRET kinase assay; assay type: biochemical; conditions: isolated PERK enzyme, 1.5 μM ATP; read-out: Biochemical IC50
T1 construct: EIF2AK3 (PERK) catalytic domain (amino acids 536-1116)
T1 sequence (Q9NZJ5 536-1116): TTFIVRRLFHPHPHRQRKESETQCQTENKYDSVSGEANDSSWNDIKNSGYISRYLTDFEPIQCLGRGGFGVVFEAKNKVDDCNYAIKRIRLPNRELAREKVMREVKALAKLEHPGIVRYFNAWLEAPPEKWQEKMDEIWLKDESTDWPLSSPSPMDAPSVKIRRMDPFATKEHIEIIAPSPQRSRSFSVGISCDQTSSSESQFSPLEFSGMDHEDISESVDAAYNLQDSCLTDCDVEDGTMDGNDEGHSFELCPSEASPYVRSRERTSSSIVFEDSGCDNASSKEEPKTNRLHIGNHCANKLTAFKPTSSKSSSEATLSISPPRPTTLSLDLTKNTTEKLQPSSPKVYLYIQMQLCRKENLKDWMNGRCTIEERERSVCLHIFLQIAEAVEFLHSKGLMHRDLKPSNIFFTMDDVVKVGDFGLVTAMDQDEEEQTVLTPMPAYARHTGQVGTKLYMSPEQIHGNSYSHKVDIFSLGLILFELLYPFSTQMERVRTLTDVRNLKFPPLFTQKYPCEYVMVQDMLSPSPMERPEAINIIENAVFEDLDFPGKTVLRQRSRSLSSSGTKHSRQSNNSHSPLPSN
Procedure, shortened: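 Human PERK catalytic domain (aa 536-1116) phosphorylating 100-200 nM GFP-eIF2a in 50 mM HEPES pH 7.5, 10 mM MgCl2, 1 mM EGTA, 0.01% Brij-35; enzyme-started, 45 min at room temperature. Stopped with 10 mM EDTA, 2 nM Tb-anti-phospho-eIF2a added for 90 min; IC50 from TR-FRET ratios by 4-parameter logistic fit.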

pIC50 [2]	Compound	pIC50 [1]
7.60 to 9.00	Cc1cc(NC(=O)Cc2ccc(F)cc2)ccc1-c1cn(C)c2ncnc(N)c12 [Example 140, N-(4-(4-amino-7-methyl-7H-pyrrolo[2,3-d]pyrimidin-5-yl)-3-methylphenyl)-2-(4-fluorophenyl)acetamide]	7.30 to 7.59
7.00 to 7.29	COc1ccc(CC(=O)Nc2ccc(-c3cn(C)c4ncnc(N)c34)c(C)c2)cc1 [Example 141, N-(4-(4-amino-7-methyl-7H-pyrrolo[2,3-d]pyrimidin-5-yl)-3-methylphenyl)-2-(4-methoxyphenyl)acetamide]	6.30 to 6.60
7.60 to 9.00	Cc1ccccc1CC(=O)Nc1ccc(-c2cn(C)c3ncnc(N)c23)c(C)c1 [Example 142, N-(4-(4-amino-7-methyl-7H-pyrrolo[2,3-d]pyrimidin-5-yl)-3-methylphenyl)-2-(o-tolyl)acetamide]	7.30 to 7.59
7.60 to 9.00	Cc1cccc(CC(=O)Nc2ccc(-c3cn(C)c4ncnc(N)c34)c(C)c2)c1 [Example 143, N-(4-(4-amino-7-methyl-7H-pyrrolo[2,3-d]pyrimidin-5-yl)-3-methylphenyl)-2-(m-tolyl)acetamide]	7.30 to 7.59
7.60 to 9.00	Cc1ccc(CC(=O)Nc2ccc(-c3cn(C)c4ncnc(N)c34)c(C)c2)cc1 [Example 144, N-(4-(4-amino-7-methyl-7H-pyrrolo[2,3-d]pyrimidin-5-yl)-3-methylphenyl)-2-(p-tolyl)acetamide]	6.60 to 7.00
7.60 to 9.00	CCc1ccccc1CC(=O)Nc1ccc(-c2cn(C)c3ncnc(N)c23)c(C)c1 [Example 145, N-(4-(4-amino-7-methyl-7H-pyrrolo[2,3-d]pyrimidin-5-yl)-3-methylphenyl)-2-(2-ethylphenyl)acetamide]	7.30 to 7.59
7.60 to 9.00	CCc1cccc(CC(=O)Nc2ccc(-c3cn(C)c4ncnc(N)c34)c(C)c2)c1 [Example 146, N-(4-(4-amino-7-methyl-7H-pyrrolo[2,3-d]pyrimidin-5-yl)-3-methylphenyl)-2-(3-ethylphenyl)acetamide]	7.60 to 9.00
7.60 to 9.00	CCc1ccc(CC(=O)Nc2ccc(-c3cn(C)c4ncnc(N)c34)c(C)c2)cc1 [Example 147, N-(4-(4-amino-7-methyl-7H-pyrrolo[2,3-d]pyrimidin-5-yl)-3-methylphenyl)-2-(4-ethylphenyl)acetamide]	7.00 to 7.29
7.60 to 9.00	Cc1cc(NC(=O)Cc2cccc(C(C)C)c2)ccc1-c1cn(C)c2ncnc(N)c12 [Example 148, N-(4-(4-amino-7-methyl-7H-pyrrolo[2,3-d]pyrimidin-5-yl)-3-methylphenyl)-2-(3-isopropylphenyl)acetamide]	6.60 to 7.00
7.60 to 9.00	Cc1cc(NC(=O)Cc2ccccc2Cl)ccc1-c1cn(C)c2ncnc(N)c12 [Example 149, N-(4-(4-amino-7-methyl-7H-pyrrolo[2,3-d]pyrimidin-5-yl)-3-methylphenyl)-2-(2-chlorophenyl)acetamide]	7.30 to 7.59
7.60 to 9.00	Cc1cc(NC(=O)Cc2cccc(Cl)c2)ccc1-c1cn(C)c2ncnc(N)c12 [Example 150, N-(4-(4-amino-7-methyl-7H-pyrrolo[2,3-d]pyrimidin-5-yl)-3-methylphenyl)-2-(3-chlorophenyl)acetamide]	7.30 to 7.59
7.60 to 9.00	Cc1cc(NC(=O)Cc2ccc(Cl)cc2)ccc1-c1cn(C)c2ncnc(N)c12 [Example 151, N-(4-(4-amino-7-methyl-7H-pyrrolo[2,3-d]pyrimidin-5-yl)-3-methylphenyl)-2-(4-chlorophenyl)acetamide]	6.60 to 7.00
7.60 to 9.00	Cc1cc(NC(=O)Cc2ccc3ccccc3c2)ccc1-c1cn(C)c2ncnc(N)c12 [Example 152, N-(4-(4-amino-7-methyl-7H-pyrrolo[2,3-d]pyrimidin-5-yl)-3-methylphenyl)-2-(naphthalen-2-yl)acetamide]	7.00 to 7.29
7.60 to 9.00	Cc1cc(NC(=O)Cc2cccc3ccccc23)ccc1-c1cn(C)c2ncnc(N)c12 [Example 153, N-(4-(4-amino-7-methyl-7H-pyrrolo[2,3-d]pyrimidin-5-yl)-3-methylphenyl)-2-(naphthalen-1-yl)acetamide]	7.30 to 7.59
7.00 to 7.29	Cc1cc(NC(=O)Cc2cccc3ncccc23)ccc1-c1cn(C)c2ncnc(N)c12 [Example 154, N-(4-(4-amino-7-methyl-7H-pyrrolo[2,3-d]pyrimidin-5-yl)-3-methylphenyl)-2-(quinolin-5-yl)acetamide]	6.00 to 6.30
7.30 to 7.59	Cc1cc(NC(=O)Cc2cncc3ccccc23)ccc1-c1cn(C)c2ncnc(N)c12 [Example 155, N-(4-(4-amino-7-methyl-7H-pyrrolo[2,3-d]pyrimidin-5-yl)-3-methylphenyl)-2-(isoquinolin-4-yl)acetamide]	6.60 to 7.00
7.00 to 7.29	Cc1cc(NC(=O)Cc2cccc3cnccc23)ccc1-c1cn(C)c2ncnc(N)c12 [Example 156, N-(4-(4-amino-7-methyl-7H-pyrrolo[2,3-d]pyrimidin-5-yl)-3-methylphenyl)-2-(isoquinolin-5-yl)acetamide]	6.30 to 6.60
7.60 to 9.00	Cc1cc(NC(=O)Cc2ccccc2C(F)(F)F)ccc1-c1cn(C)c2ncnc(N)c12 [Example 157, N-(4-(4-amino-7-methyl-7H-pyrrolo[2,3-d]pyrimidin-5-yl)-3-methylphenyl)-2-(2-(trifluoromethyl)phenyl)acetamide]	7.00 to 7.29
7.00 to 7.29	Cc1cc(NC(=O)Cc2ccc(C(F)(F)F)cc2)ccc1-c1cn(C)c2ncnc(N)c12 [Example 159, N-(4-(4-amino-7-methyl-7H-pyrrolo[2,3-d]pyrimidin-5-yl)-3-methylphenyl)-2-(4-(trifluoromethyl)phenyl)acetamide]	6.00 to 6.30
7.60 to 9.00	Cc1cc(NC(=O)Cc2cccc(C)c2C)ccc1-c1cn(C)c2ncnc(N)c12 [Example 162, N-(4-(4-amino-7-methyl-7H-pyrrolo[2,3-d]pyrimidin-5-yl)-3-methylphenyl)-2-(2,3-dimethylphenyl)acetamide]	7.00 to 7.29
< 5.30	Cc1cc(NC(=O)CC2CC2)ccc1-c1cn(C)c2ncnc(N)c12 [Example 163, N-(4-(4-amino-7-methyl-7H-pyrrolo[2,3-d]pyrimidin-5-yl)-3-methylphenyl)-2-cyclopropyl-acetamide]	< 5.30
7.00 to 7.29	Cc1cc(NC(=O)CC2CCC2)ccc1-c1cn(C)c2ncnc(N)c12 [Example 164, N-(4-(4-amino-7-methyl-7H-pyrrolo[2,3-d]pyrimidin-5-yl)-3-methylphenyl)-2-cyclobutyl-acetamide]	5.52 to 5.70
6.60 to 7.00	Cc1cc(NC(=O)CC2CCCC2)ccc1-c1cn(C)c2ncnc(N)c12 [Example 165, N-(4-(4-amino-7-methyl-7H-pyrrolo[2,3-d]pyrimidin-5-yl)-3-methylphenyl)-2-cyclopentyl-acetamide]	6.00 to 6.30
7.60 to 9.00	Cc1cc(NC(=O)CC2CCCCC2)ccc1-c1cn(C)c2ncnc(N)c12 [Example 166, N-(4-(4-amino-7-methyl-7H-pyrrolo[2,3-d]pyrimidin-5-yl)-3-methylphenyl)-2-cyclohexyl-acetamide]	6.60 to 7.00
6.60 to 7.00	Cc1cc(NC(=O)c2ccccc2)ccc1-c1cn(C)c2ncnc(N)c12 [Example 167, N-(4-(4-amino-7-methyl-7H-pyrrolo[2,3-d]pyrimidin-5-yl)-3-methylphenyl)benzamide]	5.40 to 5.52
